# Where two headings read alike, the source gives them in different places.
# Test: Phase 1 clinical study in healthy subjects: plasma pharmacokinetics and food effect
# Type: in vivo, human
# Protocol: A randomized, double‐blind, third‐party open (i.e., subject and Investigator blind, and Sponsor open), placebo‐controlled study was conducted in healthy subjects to investigate the safety, tolerability, and pharmacokinetics of single and multiple oral doses of PF‐04895162 and to characterize the effect of food on the pharmacokinetics of a single oral dose of PF‐04895162. The study was conducted in accordance with the International Conference on Harmonization guideline for Good Clinical Practice and the principles of the Declaration of Helsinki and was approved by the local independent ethics committee. All subjects gave written informed consent prior to participation in the study. The study was planned as a parallel group, dose escalation study in four cohorts of 10 subjects each, however, the study was terminated prematurely and only Cohort 1 was conducted. After an initial screening visit to confirm eligibility, subjects in Cohort 1 (Figure 1) received single oral doses of 300 mg PF‐04895162 in Period 1 (under fasting conditions) and Period 2 (under fed conditions), and then 300 mg BID PF‐04895162 or placebo for 14 days (under fasting conditions) in Period 3 (the final dose was administered on the morning of Day 14). In Period 2, subjects were given a high‐fat breakfast 25 minutes prior to dosing which had to be consumed within 20 minutes. In all periods, subjects were fasted for at least 8 hours prior to morning dosing (except for breakfast in Period 2), and received lunch and dinner approximately 4 and 9‐10 hours after the morning dose, respectively. In Period 3, subjects were randomized so that eight subjects received PF‐04895162 and two subjects received placebo. The single doses in Periods 1 and 2, and the first dose in Period 3 were each separated by 3 days. A follow‐up visit was conducted 7‐14 days after the final dose. The ClinicalTrials.gov identifier was NCT01691274.
# Safety was assessed throughout the study by monitoring adverse events, vital signs (blood pressure, pulse rate, and body temperature), 12‐lead ECGs, and physical examinations. Blood samples for safety laboratory assessments were collected prior to and 24 hours after the first single dose of PF‐04895162 (Day 1 and 2 of Period 1), and in Period 3 on Days 7, 14, and 21 (additional samples were also collected in response to emerging safety data). The Columbia suicide severity rating scale (C‐SSRS) was also conducted at screening or baseline and at the follow‐up visit. Blood samples for pharmacokinetic profiles of PF‐04895162 were collected from predose to 72 hours after each single dose (Periods 1 and 2), and up to 12 and 48 hours after morning dosing on Days 7 and 14, respectively, in Period 3. Additional trough samples were also collected on Days 5, 6, 12, and 13 of Period 3.
# The sample size of 10 subjects per cohort was chosen based on practical considerations and was considered sufficient to provide adequate safety information at each dose level. To assess the effect of food on the pharmacokinetics of PF‐04895162, natural log transformed area under the plasma concentration‐time curve (AUC) from time 0 to the last measured time point (AUClast), AUC from time 0 extrapolated to infinity (AUCinf) and maximum plasma concentration (Cmax) were analyzed using a mixed effects model with treatment (fed or fasted) as a fixed effect and subject as a random effect. Estimates of the adjusted mean differences (Fed ‐ Fasted) and corresponding 90% confidence intervals (CIs) were obtained from the model. The adjusted mean differences and 90% CIs for the differences were exponentiated to provide estimates of the ratio of adjusted geometric means (Fed/Fasted) and 90% CIs for the ratios. No formal hypothesis testing was conducted.
# [1] = 300 mg single dose, high-fat breakfast vs fasted
smiles,measurement,setting,value
"O=C(Cc1ccc(F)cc1)Nn1c(C2CC2)nc2cc(F)ccc2c1=O [PF‐04895162, N‐(2‐cyclopropyl‐7‐fluoro‐4‐oxoquinazolin‐3(4H)‐yl)‐2‐(4‐fluorophenyl)ethanamide]","AUCinf, Ratio (90% Confidence Interval) of Adjusted Means, Fed vs Fasted",[1],"113.27 (102.99, 124.58) %"
same,"AUClast, Ratio (90% Confidence Interval) of Adjusted Means, Fed vs Fasted",[1],"116.85 (106.90, 127.73) %"
same,"Cmax, Ratio (90% Confidence Interval) of Adjusted Means, Fed vs Fasted",[1],"202.92 (178.28, 230.95) %"
same,AUC,"human, plasma, oral, 300 mg, 300 mg BID, Day 7, subject with the highest ALT values, read-out: AUCtau, Subject 8",93000 ng·h/mL
same,Cmax,"human, plasma, oral, 300 mg, 300 mg BID, Day 7, subject with the highest ALT values, read-out: Cmax, Subject 8 (converted)",10800 ng/mL
same,AUC,"human, plasma, oral, 300 mg, Period 1, 300 mg fasted, Day 1 (N = 10), 12 h interval, geometric mean (%CV), read-out: AUCtau",40800 ng·h/mL
same,half-life,"human, plasma, oral, 300 mg, Period 1, 300 mg fasted, Day 1 (N = 10), arithmetic mean ± SD, read-out: t½, terminal half-life (converted)",7.88 ± 3.2 h
same,Cmax,"human, plasma, oral, 300 mg, Period 1, 300 mg fasted, Day 1 (N = 10), geometric mean (%CV), read-out: Cmax",4510 ng/mL
same,Tmax,"human, plasma, oral, 300 mg, Period 1, 300 mg fasted, Day 1 (N = 10), median (range)",5 h
same,Cmax,"human, plasma, oral, 300 mg, Period 1, 300 mg fasted, Day 1 (N = 10), total concentration, read-out: Cmax",12.7 µM
same,half-life,"human, plasma, oral, 300 mg, Period 2, 300 mg fed, Day 1 (N = 10), arithmetic mean ± SD, read-out: t½, terminal half-life (converted)",5.21 ± 1.17 h
same,Cmax,"human, plasma, oral, 300 mg, Period 2, 300 mg fed, Day 1 (N = 10), geometric mean (%CV), read-out: Cmax",9150 ng/mL
same,Tmax,"human, plasma, oral, 300 mg, Period 2, 300 mg fed, Day 1 (N = 10), median (range)",4 h
same,Cmax,"human, plasma, oral, 300 mg, Period 2, 300 mg fed, Day 1 (N = 10), total concentration, read-out: Cmax",25.8 µM
same,Cmax at 7 day,"human, plasma, oral, 300 mg, Period 3, 300 mg BID fasted, Day 7 (N = 7), geometric mean (%CV)",9430 ng/mL
same,AUC,"human, plasma, oral, 300 mg, Period 3, 300 mg BID fasted, Day 7 (N = 7), geometric mean (%CV), read-out: AUCtau",85200 ng·h/mL
same,Tmax at 7 day,"human, plasma, oral, 300 mg, Period 3, 300 mg BID fasted, Day 7 (N = 7), median (range)",2 h
same,Cmax at 7 day,"human, plasma, oral, 300 mg, Period 3, 300 mg BID fasted, Day 7 (N = 7), total concentration",26.5 µM
same,half-life at 14 day,"human, plasma, oral, 300 mg, Period 3, 300 mg BID fasted, Day 14 (N = 7), arithmetic mean ± SD, read-out: t½, terminal half-life (converted)",8.04 ± 3.29 h
same,Cmax at 14 day,"human, plasma, oral, 300 mg, Period 3, 300 mg BID fasted, Day 14 (N = 7), geometric mean (%CV)",8380 ng/mL
same,AUC,"human, plasma, oral, 300 mg, Period 3, 300 mg BID fasted, Day 14 (N = 7), geometric mean (%CV), read-out: AUCtau",71200 ng·h/mL
same,Tmax at 14 day,"human, plasma, oral, 300 mg, Period 3, 300 mg BID fasted, Day 14 (N = 7), median (range)",2 h
same,Cmax at 14 day,"human, plasma, oral, 300 mg, Period 3, 300 mg BID fasted, Day 14 (N = 7), total concentration",23.6 µM
same,half-life,"human, plasma, oral, 300 mg, similar after single and multiple dosing, 300 mg, read-out: Mean terminal half-life (converted)",~8 h

# — publication PMC6370995, “Phase I study of PF‐04895162, a Kv7 channel opener, reveals unexpected hepatotoxicity in healthy subjects, but not rats or monkeys: clinical evidence of disrupted bile acid homeostasis” (Pharmacology Research & Perspectives, 2019)
